Measured values from patent US12195482B1 (Arcus Biosciences, Inc., priority 2022, dated 2025).

Tests used:
recombinant human TYRO3 = biological target: T1, recombinant human TYRO3 (Homo sapiens, UniProt Q06418); test: Biochemical potency, HTRF KinEASE-TK kinase assay; settings: 1 nM TYRO3, 700 μM ATP
T1 construct: purchased Invitrogen
T1 sequence (Q06418 41-890): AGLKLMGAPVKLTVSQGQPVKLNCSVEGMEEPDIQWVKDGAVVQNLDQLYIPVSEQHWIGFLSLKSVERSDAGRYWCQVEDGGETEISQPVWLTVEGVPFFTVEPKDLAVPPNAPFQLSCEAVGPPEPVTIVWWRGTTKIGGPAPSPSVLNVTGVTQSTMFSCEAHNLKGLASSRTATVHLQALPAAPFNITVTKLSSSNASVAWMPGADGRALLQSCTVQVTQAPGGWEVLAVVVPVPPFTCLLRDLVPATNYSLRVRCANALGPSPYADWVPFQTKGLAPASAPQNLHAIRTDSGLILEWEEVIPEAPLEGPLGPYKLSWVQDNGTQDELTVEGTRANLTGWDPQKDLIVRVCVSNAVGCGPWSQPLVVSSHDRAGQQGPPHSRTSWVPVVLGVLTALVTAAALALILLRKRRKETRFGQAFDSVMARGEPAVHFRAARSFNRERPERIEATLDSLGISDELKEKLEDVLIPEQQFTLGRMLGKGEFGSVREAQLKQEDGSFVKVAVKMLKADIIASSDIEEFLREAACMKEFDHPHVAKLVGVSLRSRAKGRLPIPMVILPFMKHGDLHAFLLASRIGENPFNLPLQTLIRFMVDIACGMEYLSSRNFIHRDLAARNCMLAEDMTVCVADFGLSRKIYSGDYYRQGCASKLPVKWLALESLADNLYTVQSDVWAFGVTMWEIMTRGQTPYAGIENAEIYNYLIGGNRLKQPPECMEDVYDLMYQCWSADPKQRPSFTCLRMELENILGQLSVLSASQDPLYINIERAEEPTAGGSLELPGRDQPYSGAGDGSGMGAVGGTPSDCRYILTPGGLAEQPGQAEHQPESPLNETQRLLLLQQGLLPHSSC
How it was run: (§1)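 Enzyme (AXL 5 nM; TYRO3 or MER 1 nM final) was preincubated with compound for 1 h at RT, then reacted for 2 h at RT with 800 nM biotinylated TK substrate and 700 µM ATP in HEPES pH 7.4, MgCl2, DTT, BSA, 1% DMSO. Percent activity came from the HTRF 665/620 ratio.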

recombinant human MER = biological target: T2, recombinant human MER (Homo sapiens, UniProt Q12866); test: Biochemical potency, HTRF KinEASE-TK kinase assay; settings: 1 nM MER, 700 μM ATP
T2 construct: purchased Invitrogen
T2 sequence (Q12866 21-999): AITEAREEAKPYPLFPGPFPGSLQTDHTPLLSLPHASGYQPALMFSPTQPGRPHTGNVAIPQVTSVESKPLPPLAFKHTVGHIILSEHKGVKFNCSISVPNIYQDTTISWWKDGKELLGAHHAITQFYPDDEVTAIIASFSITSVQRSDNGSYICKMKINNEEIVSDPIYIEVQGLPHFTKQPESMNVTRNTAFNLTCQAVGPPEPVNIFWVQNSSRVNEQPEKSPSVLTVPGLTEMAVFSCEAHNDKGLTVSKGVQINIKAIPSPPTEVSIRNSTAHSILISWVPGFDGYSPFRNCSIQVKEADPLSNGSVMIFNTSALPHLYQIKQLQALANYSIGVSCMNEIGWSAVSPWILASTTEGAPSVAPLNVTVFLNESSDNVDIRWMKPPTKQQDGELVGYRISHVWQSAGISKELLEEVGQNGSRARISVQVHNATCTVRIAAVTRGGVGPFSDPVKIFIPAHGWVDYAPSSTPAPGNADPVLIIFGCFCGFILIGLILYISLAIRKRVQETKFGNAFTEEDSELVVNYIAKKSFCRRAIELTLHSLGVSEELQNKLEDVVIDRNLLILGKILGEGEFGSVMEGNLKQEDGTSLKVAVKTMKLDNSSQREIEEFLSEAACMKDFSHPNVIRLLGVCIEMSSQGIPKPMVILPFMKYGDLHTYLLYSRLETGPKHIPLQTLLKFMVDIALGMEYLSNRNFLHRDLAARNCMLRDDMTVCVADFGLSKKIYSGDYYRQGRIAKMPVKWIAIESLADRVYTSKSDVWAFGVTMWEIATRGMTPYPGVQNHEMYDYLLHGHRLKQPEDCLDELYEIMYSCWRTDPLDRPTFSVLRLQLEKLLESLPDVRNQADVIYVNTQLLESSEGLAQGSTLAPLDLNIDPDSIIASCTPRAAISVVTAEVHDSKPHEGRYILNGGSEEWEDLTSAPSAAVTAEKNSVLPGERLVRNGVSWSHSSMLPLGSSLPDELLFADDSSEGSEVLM
How it was run: as §1

SMILES | IC50 (recombinant human TYRO3) [µM] | IC50 (recombinant human MER) [µM]
c1ccc(-c2ccc(-c3c[nH]c4ncc(-c5ccc6c(c5)CC[C@@H](N5C7COCC5C7)CC6)cc34)cc2)nc1 [Example 155, 6-[(7S)-2-{3-[4-(Pyridin-2-yl)phenyl]-1H-pyrrolo[2,3-b]pyridin-5-yl}-6,7,8,9-tetrahydro-5H-benzo[7]annulen-7-yl]-3-oxa-6-azabicyclo[3.1.1]heptane] | 0.1 to 1 | > 1
Cn1nncc1-c1ccc(-c2n[nH]c3ncc(-c4ccc5c(c4)CC[C@@H](N4C6COCC4C6)CC5)cc23)cc1 [Example 13, 6-[(7S)-2-{3-[4-(1-Methyl-1H-1,2,3-triazol-5-yl)phenyl]-1H-pyrazolo[3,4-b]pyridin-5-yl}-6,7,8,9-tetrahydro-5H-benzo[7]annulen-7-yl]-3-oxa-6-azabicyclo[3.1.1]heptane] | > 1 | > 1
Cc1ccccc1-c1ccc(-c2c[nH]c3ncc(-c4ccc5c(c4)CC[C@@H](N4C6COCC4C6)CC5)cc23)nc1 [Example 97, 6-[(7S)-2-{3-[5-(2-Methylphenyl)pyridin-2-yl]-1H-pyrrolo[2,3-b]pyridin-5-yl}-6,7,8,9-tetrahydro-5H-benzo[7]annulen-7-yl]-3-oxa-6-azabicyclo[3.1.1]heptane] | > 1 | > 1
FC(F)Oc1cccnc1-c1ccc(-c2n[nH]c3ncc(-c4ccc5c(c4)CC[C@@H](N4C6COCC4C6)CC5)cc23)cc1 [Example 99, 6-[(7S)-2-(3-{4-[3-(Difluoromethoxy)pyridin-2-yl]phenyl}-1H-pyrazolo[3,4-b]pyridin-5-yl)-6,7,8,9-tetrahydro-5H-benzo[7]annulen-7-yl]-3-oxa-6-azabicyclo[3.1.1]heptane] | 0.1 to 1 | 0.1 to 1
CC(C)(O)c1cccnc1-c1ccc(-c2c[nH]c3ncc(-c4ccc5c(c4)CC[C@@H](N4C6COCC4C6)CC5)cc23)cc1 [Example 95, 2-[2-(4-{5-[(7S)-7-{3-Oxa-6-azabicyclo[3.1.1]heptan-6-yl}-6,7,8,9-tetrahydro-5H-benzo[7]annulen-2-yl]-1H-pyrrolo[2,3-b]pyridin-3-yl}phenyl)pyridin-3-yl]propan-2-ol] | < 0.1 | < 0.1
c1ccc(-c2ccc(-c3c[nH]c4ncc(-c5ccc6c(c5)CC[C@@H](N[C@H]5CCCOC5)CC6)cc34)cc2)nc1 [Example 32, (3S)—N-[(7S)-3-[3-(4-Pyridin-2-ylphenyl)-1H-pyrrolo[2,3-b]pyridin-5-yl]-6,7,8,9-tetrahydro-5H-benzo[7]annulen-7-yl]oxan-3-amine] | 0.1 to 1 | 0.1 to 1
CO[C@H]1C[C@@H](N[C@H]2CCc3ccc(-c4cnc5[nH]nc(-c6ccc(-c7ncccc7C)cc6)c5c4)cc3CC2)C1 [Example 131, (7S)-2-{3-[4-(3-Methylpyridin-2-yl)phenyl]-1H-pyrazolo[3,4-b]pyridin-5-yl}-N-[cis-3-methoxycyclobutyl]-6,7,8,9-tetrahydro-5H-benzo[7]annulen-7-amine] | < 0.1 | < 0.1
O=C(c1cccnc1-c1ccc(-c2n[nH]c3ncc(-c4ccc5c(c4)CC[C@@H](N4C6COCC4C6)CC5)cc23)cc1)N1CCCC1 [Example 4, 6-[(7S)-2-(3-{4-[3-(Pyrrolidine-1-carbonyl)pyridin-2-yl]phenyl}-1H-pyrazolo[3,4-b]pyridin-5-yl)-6,7,8,9-tetrahydro-5H-benzo[7]annulen-7-yl]-3-oxa-6-azabicyclo[3.1.1]heptane] | 0.1 to 1 | 0.1 to 1

Results, then the compound that gave them:

IC50 (recombinant human TYRO3) [µM] | IC50 (recombinant human MER) [µM] | SMILES
< 0.1 | < 0.1 | C[C@H]1COC(=O)N1c1cccnc1-c1ccc(-c2n[nH]c3ncc(-c4ccc5c(c4)CC[C@@H](N4C6COCC4C6)CC5)cc23)cc1 [Example 125, (4S)-4-Methyl-3-[2-(4-{5-[(7S)-7-{3-oxa-6-azabicyclo[3.1.1]heptan-6-yl}-6,7,8,9-tetrahydro-5H-benzo[7]annulen-2-yl]-1H-pyrazolo[3,4-b]pyridin-3-yl}phenyl)pyridin-3-yl]-1,3-oxazolidin-2-one]
< 0.1 | < 0.1 | C[C@@H]1COC(=O)N1c1cccnc1-c1ccc(-c2n[nH]c3ncc(-c4ccc5c(c4)CC[C@@H](N4C6COCC4C6)CC5)cc23)cc1 [Example 124, (4R)-4-Methyl-3-[2-(4-{5-[(7S)-7-{3-oxa-6-azabicyclo[3.1.1]heptan-6-yl}-6,7,8,9-tetrahydro-5H-benzo[7]annulen-2-yl]-1H-pyrazolo[3,4-b]pyridin-3-yl}phenyl)pyridin-3-yl]-1,3-oxazolidin-2-one]
< 0.1 | 0.1 to 1 | Cc1ccc(C)c(-c2ccc(-c3n[nH]c4ncc(-c5ccc6c(c5)CC[C@@H](N5C7COCC5C7)CC6)cc34)cc2)n1 [Example 120, 6-[(7S)-2-{3-[4-(3,6-Dimethylpyridin-2-yl)phenyl]-1H-pyrazolo[3,4-b]pyridin-5-yl}-6,7,8,9-tetrahydro-5H-benzo[7]annulen-7-yl]-3-oxa-6-azabicyclo[3.1.1]heptane]
< 0.1 | < 0.1 | Cc1cccnc1-c1ccc(-c2n[nH]c3ncc(-c4ccc5c(c4)CC[C@@H](N[C@H]4CCCOC4)CC5)cc23)cc1 [Example 129, (3S)—N-[(7S)-2-{3-[4-(3-Methylpyridin-2-yl)phenyl]-1H-pyrazolo[3,4-b]pyridin-5-yl}-6,7,8,9-tetrahydro-5H-benzo[7]annulen-7-yl]oxan-3-amine]
< 0.1 | 0.1 to 1 | Cc1cc(F)cnc1-c1ccc(-c2n[nH]c3ncc(-c4ccc5c(c4)CC[C@@H](N4C6COCC4C6)CC5)cc23)cc1 [Example 28, 6-[(7S)-3-[3-[4-(5-Fluoro-3-methylpyridin-2-yl)phenyl]-1H-pyrazolo[3,4-b]pyridin-5-yl]-6,7,8,9-tetrahydro-5H-benzo[7]annulen-7-yl]-3-oxa-6-azabicyclo[3.1.1]heptane]
< 0.1 | 0.1 to 1 | Cn1ncnc1-c1ccc(-c2n[nH]c3ncc(-c4ccc5c(c4)CC[C@@H](N4C6COCC4C6)CC5)cc23)cc1 [Example 110, 6-[(7S)-2-{3-[4-(1-Methyl-1H-1,2,4-triazol-5-yl)phenyl]-2H-pyrazolo[3,4-b]pyridin-5-yl}-6,7,8,9-tetrahydro-5H-benzo[7]annulen-7-yl]-3-oxa-6-azabicyclo[3.1.1]heptane]
< 0.1 | 0.1 to 1 | COCCOc1cccnc1-c1ccc(-c2n[nH]c3ncc(-c4ccc5c(c4)CC[C@@H](N4C6COCC4C6)CC5)cc23)cc1 [Example 180, 6-[(7S)-2-(3-{4-[3-(2-Methoxyethoxy)pyridin-2-yl]phenyl}-1H-pyrazolo[3,4-b]pyridin-5-yl)-6,7,8,9-tetrahydro-5H-benzo[7]annulen-7-yl]-3-oxa-6-azabicyclo[3.1.1]heptane]
< 0.1 | < 0.1 | Cc1cccnc1-c1ccc(-c2n[nH]c3ncc(-c4ccc5c(c4)CC[C@@](C)(N4CCC[C@H]4C)CC5)cc23)nc1 [Example 105, 3-Methyl-6′-{5-[(7S)-7-methyl-7-[(2R)-2-methylpyrrolidin-1-yl]-6,7,8,9-tetrahydro-5H-benzo[7]annulen-2-yl]-1H-pyrazolo[3,4-b]pyridin-3-yl}-2,3′-bipyridine]
